The subject of data set [1] is murine DNA 5-C-MTase. Description: Methylation assay: methyl transfer from [methyl-3H]AdoMet to ODNs by DNA methyltransferase from Friend erythroleukemia cell nuclei. It is filed as biochemical. Here is the method: The phosphoramidite of 5-fluorodeoxycytidine (5FdC) and unmodified 5-methyl deoxycytosine (5MdC) and 5FC-containing ODNs were synthesized and purified as described in Marasco, C. J. et al., J. Org. […] 5MdC phosphoramidite is commercially available. ss ODNs were heated to 90° C. for 10 min and quickly chilled on ice immediately prior to assay. […] For ds ODNs, an equimolar mixture of complementary ODNs was heated to 90° C. for 10 min and slowly cooled to room temperature.
Preparation of Murine DNA 5-C-MTase. The DNA 5-C-MTase used in these studies was the 100,000×g supernatant of a 0.3M NaCl extract of Friend erythroleukemia cell nuclei.
Methylation Assay. Reaction mixtures (50 μl ) in 0.1M imidazole, pH 7.4/20 mM EDTA/0.5 mM dithiothreitol contained 0.5 μg of each ODN indicated, ≈0.6 units of DNA 5-C-MTase (1 unit transfers 1 pmol to A (AS)·A'Mp (M1) per min; see Table 7), and 2.8 μCi (1 Ci=37 GBq) of [methyl-^3 H]AdoMet (AdoMet=S-adenosylmethionine) (8 μM). […] For accuracy, methylation rates <5 pmol/30 min were measured in quadrupled reaction mixtures (200 μl ). After incubation for 30 min at 37° C., ODNs were processed for quantitation of radiolabel as described (20) with 25 μg of salmon sperm DNA added as carrier prior to perchloric acid precipitation.
All assays were performed in duplicate.

The subject of a further data set is Friend leukemia cells. Description: Growth of Friend leukemia cells treated with phosphorothioate end capped oligomers. It is filed as cell-based, murine. Also on record: dose or concentration left out as unconfirmed. Particulars: concentrations of oligomers. Here is the method: Having established that specific phosphorothioate end capped ODNs retain activity against DNA methyltransferase, their biological effects were examined in intact Friend cells: the biological effects of oligomer A were compared to oligomer B which has no available substrate sites and thus cannot be an inhibitor of DNA methyltransferase, and of oligomer D with oligomer C which has no FC.
A test was conducted to determine if these oligomers affect growth or differentiation of Friend leukemia cells. If growth effects are due to the toxicity of FC released from oligomers, then oligomer A and oligomer B should have equivalent effects and oligomer C should have no effect on growth.
Oligomer C may have a minor effect if it competes with endogenous DNA for DNA methyltransferase binding in a reversible manner. If, however, growth effects are due to a generalized effect of high oligomer concentration, then all oligomers, A, B and C, should affect growth similarly.

The subject of data set [2] is bacterial SssI methyltransferase. Briefly: DNA methylase substrate activity with bacterial SssI enzyme preparation. It is filed as biochemical. The source says: (§1) They are labeled Sense (S), Antisense (AS), Methylated Antisense 1 (M1) and Methylated Antisense 2 (M2). […] This property of M2 provides an approach to accurately monitoring levels of DNA methyltransferase activity in clinically obtained tissue samples that might otherwise be contaminated by bacteria, since bacterial DNA methyltransferase activity would be excluded as a component of this measurement.
RESULTS ARE AVERAGE OF 2 EXPTS. BACTERIAL SSS1 ENZYME PREPARATION. ASSAYE

Data set [3] deals with bacterial DNA methyltransferases. Briefly: Methylation by bacterial DNA methyltransferases that require double stranded DNA. The format is biochemical.
Source text: as §1

Data set [4] concerns murine DNA 5-C-MTase. Description: Methylation assay: methyl transfer from [methyl-3H]AdoMet to ODNs by DNA methyltransferase from Friend erythroleukemia cell nuclei. The format is biochemical. Particulars: Table 2; enzyme preparation from Friend leukemia cells; 1 μg oligomer; average of 2 expts; background 2691.
In data set [5] the target is T1, DNA 5-C-methyltransferase (murine, Friend erythroleukemia cells) (Mus musculus, UniProt P13864 P13864:1-1620). Description: methylation rate; 170 in Table 6, 130 in Table 10. The following applies: protein: extract; tags: 0.3 M NaCl nuclear extract, 100,000 x g supernatant; single approx. 190 kDa species forming covalent complexes.
In data set [6] the target is T1, DNA 5-C-methyltransferase (murine, …). Briefly: methylation rate; 150 in Table 10. The following applies: protein: extract; tags: 0.3 M NaCl nuclear extract, 100,000 x g supernatant; single approx. 190 kDa species forming covalent complexes. Here is the method: (§2) Methylation Assay. Reaction mixtures (50 µl) in 0.1M imidazole, pH 7.4/20 mM EDTA/0.5 mM dithiothreitol contained 0.5 µg of each ODN indicated, ≈0.6 units of DNA 5-C-MTase (1 unit transfers 1 pmol to A (AS)·A'M_p (M1) per min; see Table 7), and 2.8 µCi (1 Ci=37 GBq) of [methyl-^3H]AdoMet (AdoMet=S-adenosylmethionine) (8 µM). Substrate C sites are in excess in the reaction, and methyl transfer is linear for >45 min. For accuracy, methylation rates <5 pmol/30 min were measured in quadrupled reaction mixtures (200 µl). After incubation for 30 min at 37° C., ODNs were processed for quantitation of radiolabel as described (20) with 25 µg of salmon sperm DNA added as carrier prior to perchloric acid precipitation.

Data set [7] shares this target. Description: methylation rate. The following applies: protein: extract; tags: 0.3 M NaCl nuclear extract, 100,000 x g supernatant; single approx. 190 kDa species forming covalent complexes; potential stem-loop.
For data set [8] the target is unchanged. Description: methylation rate; 128 in Table 10. The following applies: protein: extract; tags: 0.3 M NaCl nuclear extract, 100,000 x g supernatant; single approx. 190 kDa species forming covalent complexes. How it is done: as §2
Data set [9] addresses T2, Hha I DNA methyltransferase (UniProt P05102 P05102:1-327).
T2 sequence: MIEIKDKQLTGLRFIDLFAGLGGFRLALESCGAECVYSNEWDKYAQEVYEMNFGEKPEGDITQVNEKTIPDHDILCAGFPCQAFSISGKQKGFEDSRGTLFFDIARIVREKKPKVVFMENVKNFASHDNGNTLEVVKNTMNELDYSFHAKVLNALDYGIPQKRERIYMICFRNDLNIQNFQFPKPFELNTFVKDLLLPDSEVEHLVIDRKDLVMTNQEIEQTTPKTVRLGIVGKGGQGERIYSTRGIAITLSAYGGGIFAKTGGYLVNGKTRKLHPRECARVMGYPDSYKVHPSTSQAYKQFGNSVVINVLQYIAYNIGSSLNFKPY
Briefly: ss ODNs not substrates at 37 C.

The target in data set [10] is T1, DNA 5-C-methyltransferase (murine, …). Briefly: inhibition; methylation rate; 3 in Table 6; potent inhibitor. The following applies: protein: extract; tags: 0.3 M NaCl nuclear extract, 100,000 x g supernatant; single approx. 190 kDa species forming covalent complexes.

T1 sequence (P13864 whole entry, one chain of several): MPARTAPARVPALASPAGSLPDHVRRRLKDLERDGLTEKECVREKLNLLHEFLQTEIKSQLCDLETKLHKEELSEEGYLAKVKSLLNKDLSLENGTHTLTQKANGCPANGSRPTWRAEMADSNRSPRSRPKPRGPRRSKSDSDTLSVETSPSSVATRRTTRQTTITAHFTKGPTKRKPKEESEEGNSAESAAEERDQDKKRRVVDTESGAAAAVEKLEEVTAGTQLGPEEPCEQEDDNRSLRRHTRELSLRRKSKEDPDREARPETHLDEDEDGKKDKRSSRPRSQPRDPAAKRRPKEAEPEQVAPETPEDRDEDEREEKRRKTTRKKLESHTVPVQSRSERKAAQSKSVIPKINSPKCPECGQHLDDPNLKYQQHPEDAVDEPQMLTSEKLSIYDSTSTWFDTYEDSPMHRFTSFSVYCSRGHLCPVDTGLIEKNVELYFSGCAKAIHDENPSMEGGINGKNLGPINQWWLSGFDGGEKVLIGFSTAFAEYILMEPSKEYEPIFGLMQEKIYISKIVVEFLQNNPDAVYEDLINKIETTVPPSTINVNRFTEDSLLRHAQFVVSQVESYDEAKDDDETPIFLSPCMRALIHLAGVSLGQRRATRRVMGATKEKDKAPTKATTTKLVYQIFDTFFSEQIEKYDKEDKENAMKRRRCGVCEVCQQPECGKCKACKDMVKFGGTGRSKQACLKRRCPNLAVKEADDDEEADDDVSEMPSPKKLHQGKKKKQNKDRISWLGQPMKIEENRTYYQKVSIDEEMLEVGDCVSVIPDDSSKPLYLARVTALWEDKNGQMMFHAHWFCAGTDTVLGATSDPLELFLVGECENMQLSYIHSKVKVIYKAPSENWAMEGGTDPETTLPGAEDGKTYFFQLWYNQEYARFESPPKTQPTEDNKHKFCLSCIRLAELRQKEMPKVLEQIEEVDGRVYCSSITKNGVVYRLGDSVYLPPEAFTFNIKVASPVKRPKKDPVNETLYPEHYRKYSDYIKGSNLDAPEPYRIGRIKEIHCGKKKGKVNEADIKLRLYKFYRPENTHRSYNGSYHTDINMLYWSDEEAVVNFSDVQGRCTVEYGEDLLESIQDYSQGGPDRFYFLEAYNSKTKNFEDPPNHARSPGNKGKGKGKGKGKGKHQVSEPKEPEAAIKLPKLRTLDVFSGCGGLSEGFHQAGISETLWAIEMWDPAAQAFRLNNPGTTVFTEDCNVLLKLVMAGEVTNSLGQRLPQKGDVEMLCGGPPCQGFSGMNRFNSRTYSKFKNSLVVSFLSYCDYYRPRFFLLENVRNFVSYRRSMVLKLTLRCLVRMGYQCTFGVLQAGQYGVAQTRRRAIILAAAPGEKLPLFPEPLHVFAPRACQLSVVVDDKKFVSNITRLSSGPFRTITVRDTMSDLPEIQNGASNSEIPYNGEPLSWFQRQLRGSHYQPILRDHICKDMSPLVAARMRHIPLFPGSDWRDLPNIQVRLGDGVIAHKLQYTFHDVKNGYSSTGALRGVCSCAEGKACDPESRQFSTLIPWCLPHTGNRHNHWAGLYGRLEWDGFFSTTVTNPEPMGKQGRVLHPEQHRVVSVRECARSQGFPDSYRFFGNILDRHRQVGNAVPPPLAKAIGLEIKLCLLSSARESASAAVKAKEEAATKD

“ATTGCGNATTCCGGATCNGCGATC (phosphorothioate end caps, 5-MeC 7, 5-FC 18, further chemistry not given here) [Oligomer A, phosphorothioate end capped ASM7F18]”: the “inhibition of methylation by incorporation of FC in position 18” value in the data set on murine DNA 5-C-MTase [1] (oligomer A compared with capped ASM7, cell free enzyme assay) came to 97%. Moreover, in the data set on Friend leukemia cells, the “inhibition of growth of Friend leukemia cells (in words)” value was “more potent that B”.

With “5' ATTGCGNATTNCGGATNCGCGATC 3' (5-methylcytosine at 7, 11, 17, further chemistry not given here) [M2, AS with 5-methylcytosine (N) at 7, 11, 17 (non-CpG sites)]”, the “substrate activity for mammalian DNA methyltransferase (in words)” value with murine DNA 5-C-MTase [1] was “exceptional substrate activity”. In addition, the “DNA METHYLASE (FL) SUBSTRATE ACTIVITY, ACTIVITY (CPM)” value with murine DNA 5-C-MTase [1] (Table 4, single and double stranded constructs, average of 2 expts, background 1813) is listed as 157027 CPM. The “RATE (rate of methylation relative to A)” value stood at 130 in the data set with murine DNA 5-C-MTase [1] (Table 9, ss ODNs with 5MeC substituted for C at the sites given); 128 in the data set with murine DNA 5-C-MTase [1] (Table 10, ss ODNs with 5 mC and 5 FC substitutions). The “substrate activity for bacterial SssI methyltransferase (in words)” value in data set [2] is “only moderate activity as a substrate”. Also, the “DNA METHYLASE SUBSTRATE ACTIVITY, ACTIVITY (CPM)” value is listed as 51047 CPM in data set [2] (Table 3, bacterial SssI enzyme preparation, 0.25 μg oligomer, average of 2 expts, background 1351) and 882284 CPM in the data set on murine DNA 5-C-MTase [4]. Further, the “methylation by most bacterial DNA methyltransferases (in words)” value in data set [3] is “not methylated”. For “ATTGCGNATTCCGGATCCGCGATC (phosphorothioate end caps, 5-methylcytosine 7, further chemistry not given here) [Oligomer C, phosphorothioate end capped ASM7]”, the “inhibition of growth of Friend leukemia cells (in words)” value in the data set on Friend leukemia cells is reported as “no appreciable effect”.

B1: ASM7 (ssDNA)
DNA: ATTGCGCATTCCGGATCCGCGATC
modifications: 5mC at 7 [5mC at 7]
In the case of B1, the binding signal in data set [5] was 140 relative to A.

B2: ASM5 (ssDNA)
DNA: ATTGCGCATTCCGGATCCGCGATC
modifications: 5mC at 5
As for B2, the binding signal in [6] is 175 relative to A.

B3: structure 6 ODN (ssDNA)
DNA: ATGACGCACCTCGTTGACGCGCTA
modifications: 5mC at 7
For the molecule B3, the binding signal in data set [7] was > 300 relative to A.

B4: M2 (AMx) (ssDNA)
DNA: ATTGCGCATTCCGGATCCGCGATC
modifications: 5mC at 7,11,17 [5mC at 7,11,17]
Take B4: the binding signal in data set [8] is 130 relative to A.

B5: AS (A) (ssDNA)
DNA: ATTGCGCATTCCGGATCCGCGATC
Turning to B5, in data set [9], the binding result is “no binding”.

B6: S (A') (ssDNA)
DNA: GATCGCGGATCCGGAATGCGCAAT
For the molecule B6, the binding result in [9] was “no binding”.

B7: ASM7 F18 (ssDNA)
DNA: ATTGCGCATTCCGGATCCGCGATC
modifications: 5mC at 7; 5-fluoro-C at 18 [5mC at 7; 5-fluoro-C at 18]
In the case of B7, the binding signal in data set [10] is 3.2 relative to A.

The values are drawn from patent US5652105A, “Substrate for detection of mammalian 5-C-DNA methyltransferase” (Health Research, Inc., priority 1995, dated 1997).
